The structures appear in SMILES notation.

For the first assay, the system named is hepatocellular carcinoma cell line Hep3B. Briefly: Growth inhibition of Hep3B cells, 48 hr treatment, Hoechst 33342 nucleus count (GE InCell 2200). In kind it is cell-based. As to conditions: Homo sapiens, Table 1, ratio of number of tumor cells treated with 10 μM compound to non-treated cells. The method, then: The potency of selected compounds was defined by the growth inhibition ability to the hepatocellular carcinoma cell line Hep3B. The Hep3B cells were treated with selected compounds for 48 hr under 37° C., 5% CO2, and 95% relative humidity.
The number of treated cells was determined by GE InCell 2200 system, and treated cells were stained with Hoechst 33342 which can reveal the remained nucleus in culture plate. The proportion of survival cells then were calculated with the ratio of treated/non-treated cells. The growth inhibition/cytotoxic effect of selected compounds were evaluated by the following protocol of NCI-60 screening platform. The human tumor cell lines are plating on a 96 well plate in a fixed density 24 hr prior compound treatment. Compounds with multiple concentrations are then added into each well for further 48 hr incubation. Cell viability is assessed by MTS method and the potency of compound is represented by GI50 and LC50 calculated by MTS result.
Herein, the “Ratio in 10 μM (%)” in the following Tables 1-6 refers to the ratio of the number of tumor cells treated with 10 μM of selected compounds to the number of non-treated tumer cells.
Usually viability stands for the share of living cells, or the viability signal relative to a control. `Nc1nc2ccc(CC(=O)Nc3nnc(-c4ccc([N+](=O)[O-])cc4)s3)cc2s1` [Compound 1-8, 2-(2-aminobenzo[d]thiazol-6-yl)-N-(5-(4-nitrophenyl)-1,3,4-thiadiazol-2-yl)acetamide]: the viability at 10 µM turned out to be 76%.
Same read-out and setting: in the case of `CN(C)c1ccc(-c2nnc(NC(=O)Cc3ccc4nc(N)sc4c3)s2)cc1` [Compound 1-9, 2-(2-aminobenzo[d]thiazol-6-yl)-N-(5-(4-(dimethylamino)phenyl)-1,3,4-thiadiazol-2-yl)acetamide] it was 60%; in that of `Nc1nc2ccc(CC(=O)Nc3nnc(-c4ccccc4OC(F)(F)F)s3)cc2s1` [Compound 1-11, 2-(2-aminobenzo[d]thiazol-6-yl)-N-(5-(2-(trifluoromethoxy)phenyl)-1,3,4-thiadiazol-2-yl)acetamide], 68%; in that of `Nc1nc2ccc(CC(=O)Nc3nnc(-c4ccc(I)cc4)s3)cc2s1` [Compound 1-12, 2-(2-aminobenzo[d]thiazol-6-yl)-N-(5-(4-iodophenyl)-1,3,4-thiadiazol-2-yl)acetamide], 67%.
Turning to `Nc1nc2ccc(CC(=O)Nc3nnc(-c4ccc(Br)c([N+](=O)[O-])c4)s3)cc2s1` [Compound 1-13, 2-(2-aminobenzo[d]thiazol-6-yl)-N-(5-(4-bromo-3-nitrophenyl)-1,3,4-thiadiazol-2-yl)acetamide], the viability at 10 µM was 60%.
The same measure, in the same setting: the figure for `CC(C)Oc1ccc(-c2nnc(NC(=O)Cc3ccc4nc(N)sc4c3)s2)cc1` [Compound 1-14, 2-(2-aminobenzo[d]thiazol-6-yl)-N-(5-(4-isopropoxyphenyl)-1,3,4-thiadiazol-2-yl)acetamide] is 71%; for `CCCCOc1ccc(-c2nnc(NC(=O)Cc3ccc4nc(N)sc4c3)s2)cc1` [Compound 1-21, 2-(2-aminobenzo[d]thiazol-6-yl)-N-(5-(4-butoxyphenyl)-1,3,4-thiadiazol-2-yl)acetamide] it is 81%; for `CCOc1cc(OCC)c(-c2nnc(NC(=O)Cc3ccc4nc(N)sc4c3)s2)c(OCC)c1` [Compound 1-24, 2-(2-aminobenzo[d]thiazol-6-yl)-N-(5-(2,4,6-triethoxyphenyl)-1,3,4-thiadiazol-2-yl)acetamide] it is 88%.
Still for that read-out and setting: in the case of `CCOc1ccc(-c2nnc(NC(=O)Cc3ccc4nc(N)sc4c3)s2)nc1` [Compound 1-30, 2-(2-aminobenzo[d]thiazol-6-yl)-N-(5-(5-ethoxypyridin-2-yl)-1,3,4-thiadiazol-2-yl)acetamide] it was 37%.
As to `CCCc1ccc(-c2nnc(NC(=O)Cc3ccc4nc(N)sc4c3)s2)cc1` [Compound 1-33, 2-(2-aminobenzo[d]thiazol-6-yl)-N-(5-(4-propylphenyl)-1,3,4-thiadiazol-2-yl)acetamide], the viability at 10 µM was 44%.
In the case of `CCOc1ccncc1-c1nnc(NC(=O)Cc2ccc3nc(N)sc3c2)s1` [Compound 1-34, 2-(2-aminobenzo[d]thiazol-6-yl)-N-(5-(4-ethoxypyridin-3-yl)-1,3,4-thiadiazol-2-yl)acetamide], the viability at 10 µM stood at 78%.
As to `CCOc1ccc(-c2nnc(N(C)C(=O)Cc3ccc4nc(N)sc4c3)s2)c(OCC)c1` [Compound 1-36, 2-(2-aminobenzo[d]thiazol-6-yl)-N-(5-(2,4-diethoxyphenyl)-1,3,4-thiadiazol-2-yl)-N-methylacetamide], the viability at 10 µM was found to be 53%.

The assay is the same for the next values; noted with them: Homo sapiens, Table 2, ratio of number of tumor cells treated with 10 μM compound to non-treated cells.
As for `Nc1nc2ccc(CC(=O)Nc3nnc(-c4ccccc4OC(F)(F)F)o3)cc2s1` [Compound 2-4, 2-(2-aminobenzo[d]thiazol-6-yl)-N-(5-(2-(trifluoromethoxy)phenyl)-1,3,4-oxadiazol-2-yl)acetamide], the viability at 10 µM came to 88%.

Staying with this assay, now noted: Homo sapiens, Table 3, ratio of number of tumor cells treated with 10 μM compound to non-treated cells.
In the case of `COc1ccc(-c2sc(NC(=O)Cc3ccc4nc(N)sc4c3)nc2-c2ccc(C)cc2)cc1OC` [Compound 3-5, 2-(2-aminobenzo[d]thiazol-6-yl)-N-(5-(3,4-dimethoxyphenyl)-4-(p-tolyl)thiazol-2-yl)acetamide], the viability at 10 µM is 85%.
For the compound `CCCOc1ccc(-c2nc(NC(=O)Cc3ccc4nc(N)sc4c3)sc2-c2ccc(F)cc2)cc1` [Compound 3-6, 2-(2-aminobenzo[d]thiazol-6-yl)-N-(5-(4-fluorophenyl)-4-(4-propoxyphenyl)thiazol-2-yl)acetamide], the viability at 10 µM amounted to 83%.
Same read-out and setting: in the case of `Cc1ccc(-c2nc(NC(=O)Cc3ccc4nc(N)sc4c3)sc2-c2cc(C(F)(F)F)cc(C(F)(F)F)c2)cc1` [Compound 3-7, 2-(2-aminobenzo[d]thiazol-6-yl)-N-(5-(3,5-bis(trifluoromethyl)phenyl)-4-(p-tolyl)thiazol-2-yl)acetamide] it was 78%; in that of `COc1cccc(-c2nc(NC(=O)Cc3ccc4nc(N)sc4c3)sc2Br)c1` [Compound 3-8, 2-(2-aminobenzo[d]thiazol-6-yl)-N-(5-bromo-4-(3-methoxyphenyl)thiazol-2-yl)acetamide], 84%; in that of `CCOc1ccc(-c2cnc(NC(=O)Cc3ccc4nc(N)sc4c3)s2)cc1` [Compound 3-11, 2-(2-aminobenzo[d]thiazol-6-yl)-N-(5-(4-ethoxyphenyl)thiazol-2-yl)acetamide], 60%.
Same read-out and setting: in the case of `CCOc1ccc(-c2csc(NC(=O)Cc3ccc4nc(N)sc4c3)n2)c(OCC)c1` [Compound 3-12, 2-(2-aminobenzo[d]thiazol-6-yl)-N-(4-(2,4-diethoxyphenyl)thiazol-2-yl)acetamide] it was 50%.
As to `CCOc1ccc(-c2nc(NC(=O)Cc3ccc4nc(N)sc4c3)sc2Oc2ccccc2)cc1` [Compound 3-13, 2-(2-aminobenzo[d]thiazol-6-yl)-N-(4-(4-ethoxyphenyl)-5-phenoxythiazol-2-yl)acetamide], the viability at 10 µM amounted to 58%.
As for `CCOc1ccc(-c2nc(NC(=O)Cc3ccc4nc(N)sc4c3)sc2Cc2ccccc2)cc1` [Compound 3-14, 2-(2-aminobenzo[d]thiazol-6-yl)-N-(5-benzyl-4-(4-ethoxyphenyl)thiazol-2-yl)acetamide], the viability at 10 µM turned out to be 76%.

Staying with this assay, now noted: Homo sapiens, Table 4, ratio of number of tumor cells treated with 10 μM compound to non-treated cells.
As to `CCOc1ccc(-c2ccc(NC(=O)Cc3ccc4nc(N)sc4c3)s2)cc1` [Compound 4-2, 2-(2-aminobenzo[d]thiazol-6-yl)-N-(5-(4-ethoxyphenyl)thiophen-2-yl)acetamide], the viability at 10 µM came to 89%.
As for `CCOc1ccc(-c2cnc(NC(=O)Cc3ccc4nc(N)sc4c3)[nH]2)c(OCCOC)c1` [Compound 4-3, 2-(2-aminobenzo[d]thiazol-6-yl)-N-(5-(4-ethoxy-2-(2-methoxyethoxy)phenyl)-1H-imidazol-2-yl)acetamide], the viability at 10 µM is 40%.
On the same count and under the same terms, the figure for `CCOc1ccc(-c2cnc(NC(=O)Cc3ccc4nc(N)sc4c3)[nH]2)c(OCC)c1` [Compound 4-4, 2-(2-aminobenzo[d]thiazol-6-yl)-N-(5-(2,4-diethoxyphenyl)-1H-imidazol-2-yl)acetamide] is 40%.

The assay is the same for the next values; noted with them: Homo sapiens, Table 5, ratio of number of tumor cells treated with 10 μM compound to non-treated cells.
Turning to `O=C(Nc1nc(-c2ccc(Br)cc2)c(Oc2ccccc2)s1)c1ccc([N+](=O)[O-])s1` [Compound 5-1, N-(4-(4-bromophenyl)-5-phenoxythiazol-2-yl)-5-nitrothiophene-2-carboxamide], the viability at 10 µM stood at 66%.
As to `O=C(Nc1nc(-c2cccc([N+](=O)[O-])c2)c(Oc2ccccc2)s1)c1ccc([N+](=O)[O-])s1` [Compound 5-3, 5-nitro-N-(4-(3-nitrophenyl)-5-phenoxythiazol-2-yl)thiophene-2-carboxamide], the viability at 10 µM is 82%.
Still for that read-out and setting: in the case of `COc1cccc(-c2nc(NC(=O)c3ccc([N+](=O)[O-])s3)sc2Oc2ccccc2)c1` [Compound 5-4, N-(4-(3-methoxyphenyl)-5-phenoxythiazol-2-yl)-5-nitrothiophene-2-carboxamide] it was 63%.
For the compound `CCOc1ccccc1-c1nc(NC(=O)c2ccc([N+](=O)[O-])s2)sc1Oc1ccccc1` [Compound 5-5, N-(4-(2-ethoxyphenyl)-5-phenoxythiazol-2-yl)-5-nitrothiophene-2-carboxamide], the viability at 10 µM worked out at 47%.
Same read-out and setting: in the case of `CCOc1ccc(-c2nc(NC(=O)c3ccc([N+](=O)[O-])s3)sc2Oc2ccccc2)c(OCC)c1` [Compound 5-12, N-(4-(2,4-diethoxyphenyl)-5-phenoxythiazol-2-yl)-5-nitrothiophene-2-carboxamide] it was 46%; in that of `CCCOc1ccc(-c2nc(NC(=O)c3ccc([N+](=O)[O-])s3)sc2Oc2cccnc2)cc1` [Compound 5-13, 5-nitro-N-(4-(4-propoxyphenyl)-5-(pyridin-3-yloxy)thiazol-2-yl)thiophene-2-carboxamide], 53%.
On the same count and under the same terms, the figure for `COCCOc1ccc(-c2nc(NC(=O)c3ccc([N+](=O)[O-])s3)sc2Oc2cccnc2)cc1` [Compound 5-15, N-(4-(4-(2-methoxyethoxy)phenyl)-5-(pyridin-3-yloxy)thiazol-2-yl)-5-nitrothiophene-2-carboxamide] is 54%.
For `COCCOc1ccc(-c2nc(NC(=O)c3ccc([N+](=O)[O-])s3)sc2Oc2ccccc2)cc1` [Compound 5-16, N-(4-(4-(2-methoxyethoxy)phenyl)-5-phenoxythiazol-2-yl)-5-nitrothiophene-2-carboxamide], the viability at 10 µM is 59%.

The values are drawn from US11174253B2, “Compound and pharmaceutical composition containing the same” (ALPHALA CO., LTD., priority 2017, dated 2021).
